US9856207B2, “Process for the production of ralfinamide salts substantially free from impurities having genotoxic effects” (Newron Pharmaceuticals S.p.A., priority 2010, dated 2018)

Legend:
Format in all cases: physicochemical
[1] = Intrinsic Dissolution Rate (IDR) measurement according to USP General Chapter <1087>; conditions: ralfinamide methanesulfonate solid forms, USP <1087>
Description: Intrinsic dissolution rate is characteristic of each solid compound in a given solvent under fixed hydrodynamic conditions. The knowledge of this value helps in predicting if absorption would be dissolution rate-limited. The Intrinsic Dissolution Rate (IDR) measurement of ralfinamide methanesulfonate form A and H was performed according to USP General Chapter <1087>.

[2] = Exposure of form A crystals to air stream of high relative humidity (water uptake, solid form conversion); conditions: 97% RH air stream at 25° C. for two months
Text: As an alternative procedure to the slurring with water for converting anhydrous form A crystals containing undesired amounts of genotoxic impurities and/or of the residual solvents known as potential precursors thereof into the corresponding hemihydrate pseudopolymorph form H substantially free from the genotoxic impurities and/or the residual solvents known as potential precursors thereof, the capability of anhydrous form A crystals to uptake water from air having high degree of relative humidity may be exploited. For example, full conversion of form A crystals into the corresponding hemihydrate pseudopolymorph form H crystals can be achieved by keeping a batch of ralfinamide methanesulfonate or its R-enantiomer form A crystals under air stream having relative humidity higher than 65% at a temperature from 5° C. to 30° C. for a period of time which may vary from days to weeks or months, depending on the relative humidity degree and the temperature.

[3] = Solubility of the free base in water; conditions: also at 100° C.
Description: According to a preferred method to carry out the procedure defined above as “salt formation”, the formation of ralfinamide methanesulfonate form H or its R-enantiomer is carried out by using water as the sole solvent in which the free base and the methanesulfonic acid are contacted in substantially equimolecular proportion. According to a more preferred method, methanesulfonic acid is added to a suspension or emulsion of the free base in water. Generally 50-70 percent of the stoichiometric amount of the acid is initially added. […] The remaining portion of methanesulfonic acid to complete the stoichiometric amount required for the salification, or a small excess or defect (in both cases of up to 3 molar %), is subsequently added to the obtained solution. […] Therefore, it would not be possible to apply prior to the addition of the acid, any purification method implying the treatment of a solution of the free base with active charcoal or inert powder followed by filtration to remove small particles and/or impurities. […] The complementary amount of acid may be added soon after this treatment of the solution, preferably, after lowering the temperature of the mixture below 70° C.

Row | Intrinsic Dissolution Rate [1] [mg · cm−2 · min−1] | Solid form stability under humid air [2] | Solubility in water [3] | Structure (SMILES)
1 | 0.857 ± 0.012 |  |  | CS(=O)(=O)O.C[C@H](NCc1ccc(OCc2ccccc2F)cc1)C(N)=O [Hemihydrate form H, (S)-2-[4-(2-fluorobenzyloxy)benzylamino]propanamide methanesulfonate]
2 | 1.527 ± 0.265 | fully converted into the form H |  | CS(=O)(=O)O.C[C@H](NCc1ccc(OCc2ccccc2F)cc1)C(N)=O [Anhydrous form A, (S)-2-[4-(2-fluorobenzyloxy)benzylamino]propanamide methanesulfonate]
3 |  |  | practically insoluble in water | C[C@@H](NCc1ccc(OCc2ccccc2F)cc1)C(N)=O [R-enantiomer, (R)-2-[4-(2-fluorobenzyloxy)benzylamino]propanamide]
4 |  |  | practically insoluble in water | C[C@H](NCc1ccc(OCc2ccccc2F)cc1)C(N)=O [Ralfinamide free base, (S)-2-[4-(2-fluorobenzyloxy)benzylamino]propanamide]
